Laboratory results as given in patent US20120328602A1, “COMPOSITIONS AND METHODS FOR TREATING CONDITIONS ASSOCIATED WITH CERAMIDE BIOSYNTHESIS” (priority 2007, published 2012).
“Also recorded” adds a separate entry of the source.

Legend:
[1] = tested on: manganese superoxide dismutase (MnSOD); experiment: measurement of MnSOD enzymatic activity, spectrophotometric; format: in vivo, mice; conditions: FB1 0.25-1 mg/kg/d with morphine, n=5
Experimental: Dorsal halves of the spinal cord lumbar region enlargement (L4-L6) were homogenized with 10 mM phosphate buffered saline (pH 7.4) in a Polytron homogenizer and then sonicated on ice for one minute (twenty seconds, three times). The sonicated samples were subsequently centrifuged at 1,100×g for ten minutes. SOD activity was measured in the supernatants as described previously (Wang et al., 2004). A competitive inhibition assay was performed which used xanthine-xanthine oxidase-generated superoxide to reduce nitroblue tetrazolium (NBT) to blue tetrazolium salt. The reaction was performed in sodium carbonate buffer (50 mM, pH 10.1) containing EDTA (0.1 mM), nitroblue tetrazolium (25 μM), xanthine and xanthine-oxidase (0.1 mM and 2 nM respectively; Boehringer, Germany). The rate of NBT reduction was monitored spectrophotometrically (Perkin Elmer Lambda 5 Spectrophotometer, Milan, Italy) at 560 nm. The amount of protein required to inhibit the rate of NTB reduction by 50% was defined as one unit of enzyme activity. Cu/Zn-SOD activity was inhibited by performing the assay in the presence of 2 mM NaCN after pre-incubation for thirty minutes. Enzymatic activity was expressed in units per milligram of protein (Wang et al., 2004).

[2] = tested on: manganese superoxide dismutase (MnSOD); experiment: MnSOD nitration by immunoprecipitation and western blot; format: in vivo, mice
Experimental: Animals were rapidly sacrificed (<1 min) in a CO2 chamber and the dorsal portion of the spinal cord lumbar region enlargement removed and stored at −80° C. until used. Cytosolic and nuclear extracts were prepared as previously described (Bethea et al., 1998), with minor modifications. Tissues from each mouse were suspended in extraction Buffer A (0.2 mM PMSF, […], 20 μM leupeptin, 1 mM sodium orthovanadate), homogenized for two minutes, and centrifuged at 1,000×g for ten minutes at 4° C. Supernatants were collected as the cytosolic fraction. […] The levels of IκB-α, phospho-NF-κB p65 (serine 536), were quantified in cytosolic fraction from spinal cord tissue, while NF-κB p65 levels were quantified in nuclear fraction. […] Manganese superoxide dismutase (MnSOD) nitration was determined with western blot analysis of immunoprecipitated protein complex in total lysates using antibodies specific to these proteins. […] The relative expression of the protein levels as the band density for IκB-α (˜37 kDa), phospho NF-κB (65 kDa), NF-κB p65 (75 kDa), MnSOD (˜29 kDa), GFAP (˜50 kDa), and Iba1(˜17 kDa) was quantified by scanning of the X-ray films with GS-700 Imaging Densitometer (BIO-RAD U.S.A.) and a computer program (Molecular Analyst, IBM).

mice = experiment: Rotarod motor function test; format: in vivo; conditions: myriocin 0.4 mg/kg, FB1 1 mg/kg, D609 40 mg/kg; fifteen, thirty, and sixty minutes after administration; n=4; vs vehicle
Experimental: Mice were trained before experimentation for their ability to remain for one-hundred twenty seconds on a revolving Rotarod apparatus (accelerating units increase from 3.5 to 35 rpm in five minutes). Mice (n=4 per group) were injected with an i.p. injection of the highest dose of FB1 (1 mg/kg), myriocin (0.4 mg/kg), D609 (40 mg/kg) used to block antinociceptive tolerance or its vehicle. Mice (n=4 per group) were tested and examined for motor […] on the Rotarod at fifteen, thirty, and sixty minutes after drug administration as described in the method section. The latency time to fall off the Rotarod was determined. A cut-off time of one-hundred twenty seconds was used.

neutral SMase = experiment: sphingomyelinase activity in spinal cord tissues, neutral isoform (Amplex Red kit); format: in vivo, mice; conditions: repeated morphine vs vehicle (not shown)
Experimental: Sphingomyelinase activity was measure using Amplex® Red Sphingomyelinase Assay Kit (Molecular Probes, Eugene, Oreg.) following manufacturer's instructions. First, spinal cord tissues were homogenized in buffers for each specific assay as previously described (Dobrowsky and Kolesnick, 2001). For the acid isoforms, Na acetate (100 mM and pH 5.0) lysis buffer was used. 2 mM EDTA was added to the lysis buffer for detection of the insoluble isoform. For neutral isoform detection, the tissues were homogenized in Hepes (20 mM, pH 7.4) lysis buffer. The kinetics for sphingomyelinase activity was measured in a fluorescence microplate reader for two hours followed by normalization per protein concentration of the sample. Hydrogen peroxide and sphingomyelinase were used as positive controls.

[3] = tested on: serine palmitoyl transferase (SPT); experiment: serine palmitoyl transferase (SPT) activity; format: in vivo, mice; conditions: repeated morphine, tolerant mice vs vehicle
Experimental: SPT activity was determined by measuring the incorporation of [^3H] serine into 3-ketosphinganine following the method previously described (Williams et al., 1984). The results were normalized by the samples' protein concentration.

IL-1β = IL-1β in dorsal horn of lumbar spinal cord by ELISA; format: in vivo, mice; conditions: morphine group vs vehicle group, n=10
TNF-α = TNF-α in dorsal horn of lumbar spinal cord by ELISA; format: in vivo, mice; conditions: morphine group vs vehicle group, n=10
IL-6 = IL-6 in dorsal horn of lumbar spinal cord by ELISA; format: in vivo, mice; conditions: morphine group vs vehicle group, n=10

CCCC[C@@H](C)[C@@H](OC(=O)C[C@@H](CC(=O)O)C(=O)O)[C@H](C[C@@H](C)C[C@H](O)CCCC[C@@H](O)C[C@H](O)[C@H](C)N)OC(=O)C[C@@H](CC(=O)O)C(=O)O [FB1, Fumonisin B1]
loss of MnSOD enzymatic activity [1]: restored in a dose-dependent manner | post-translational nitration of MnSOD ([2]; morphine plus FB1 1 mg/kg/d, n=5, ±SEM): 350±45 densitometry units | Rotarod motor function deficits (mice): did not show signs of Rotarod deficits

CN1CC[C@]23c4c5ccc(O)c4O[C@H]2[C@@H](O)C=C[C@H]3[C@H]1C5 [morphine]
activity of the neutral SMase (neutral SMase): not changed compared to vehicle | enzymatic activity of serine palmytoyl transferase (SPT) [3]: increased enzymatic activity | IL-1β in dorsal horn tissues (IL-1β): increased immunoreactivity; also recorded: significant increase | post-translational nitration of MnSOD ([2]; mouse, in vivo): 850±70 densitometry units | TNF-α in dorsal horn tissues (TNF-α): increased immunoreactivity; also recorded: significant increase | IL-6 in dorsal horn tissues (IL-6): increased immunoreactivity; also recorded: significant increase
